Laboratory results taken from PubChem BioAssay AID330 (DTP/NCI, 2004).
Where “and” joins values, the source holds several entries; their conditions need not be identical. Equal entries are not always repeated. Toxic doses and inconclusive results are not listed. The calls were made as follows: active = survival T/C of 150% or more; inactive = T/C below 125% in these data.

Test system: P388 leukemia ip, CD2F1 mice, survival T/C
Test: NCI In Vivo Anticancer Drug Screen. Data for tumor model P388 Leukemia (intraperitoneal) in CD2F1 (CDF1) mice
Settings: endpoint: median survival time, higher = longer survival
Procedure, shortened: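 Mice carrying the transplanted tumor received test compound or vehicle. Survival was recorded in each group, and the value is the treated-group measurement divided by that of the vehicle-treated control group.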

[1] = dose: 50.0 mg/kg/injection, schedule: Q01DX009 (ip), vehicle: saline
[2] = dose: 100.0 mg/kg/injection, schedule: Q01DX009 (ip), vehicle: saline
[3] = dose: 200.0 mg/kg/injection, schedule: Q01DX009 (ip), vehicle: saline
[4] = dose: 100.0 mg/kg/injection, schedule: Q01DX001 (ip), vehicle: Klucel (hydroxypropylcellulose) (HPC)
[5] = dose: 200.0 mg/kg/injection, schedule: Q01DX001 (ip), vehicle: Klucel (hydroxypropylcellulose) (HPC)
[6] = dose: 400.0 mg/kg/injection, schedule: Q01DX001 (ip), vehicle: Klucel (hydroxypropylcellulose) (HPC)
[7] = dose: 50.0 mg/kg/injection, schedule: Q01DX009 (ip), vehicle: saline with Tween-80
[8] = dose: 100.0 mg/kg/injection, schedule: Q01DX009 (ip), vehicle: saline with Tween-80
[9] = dose: 200.0 mg/kg/injection, schedule: Q01DX009 (ip), vehicle: saline with Tween-80
[10] = dose: 50.0 mg/kg/injection, schedule: Q01DX005 (ip), vehicle: saline with Tween-80
[11] = dose: 100.0 mg/kg/injection, schedule: Q01DX005 (ip), vehicle: saline with Tween-80
[12] = dose: 100.0 mg/kg/injection, schedule: Q01DX001 (ip), vehicle: saline
[13] = dose: 15.0 mg/kg/injection, schedule: Q01DX005 (ip), vehicle: saline with Tween-80
[14] = dose: 30.0 mg/kg/injection, schedule: Q01DX005 (ip), vehicle: saline with Tween-80
[15] = dose: 60.0 mg/kg/injection, schedule: Q01DX005 (ip), vehicle: saline with Tween-80
[16] = dose: 200.0 mg/kg/injection, schedule: Q01DX005 (ip), vehicle: saline with Tween-80
[17] = dose: 12.5 mg/kg/injection, schedule: Q01DX005 (ip), vehicle: Klucel (hydroxypropylcellulose) (HPC)
[18] = dose: 25.0 mg/kg/injection, schedule: Q01DX005 (ip), vehicle: Klucel (hydroxypropylcellulose) (HPC)
[19] = dose: 50.0 mg/kg/injection, schedule: Q01DX005 (ip), vehicle: Klucel (hydroxypropylcellulose) (HPC)
[20] = dose: 120.0 mg/kg/injection, schedule: Q01DX005 (ip), vehicle: saline with Tween-80
[21] = dose: 100.0 mg/kg/injection, schedule: Q04DX003 (ip), vehicle: saline with Tween-80
[22] = dose: 200.0 mg/kg/injection, schedule: Q04DX003 (ip), vehicle: saline with Tween-80
[23] = dose: 400.0 mg/kg/injection, schedule: Q04DX003 (ip), vehicle: saline with Tween-80
[24] = dose: 100.0 mg/kg/injection, schedule: Q01DX005 (ip), vehicle: Klucel (hydroxypropylcellulose) (HPC)
[25] = dose: 200.0 mg/kg/injection, schedule: Q01DX005 (ip), vehicle: Klucel (hydroxypropylcellulose) (HPC)

Measured: T/C

Cc1cccc(Nc2cc(Cl)nc(SCC(=O)O)n2)c1C
inactive: [1] 100 % of control | [2] 98 % of control | [3] 100 % of control

[O-]c1n[n+](Cc2ccc(Cl)cc2)no1
inactive: dose: 100.0 mg/kg/injection, schedule: Q04DX003 (ip), vehicle: Klucel (hydroxypropylcellulose) (HPC) 102 % of control | dose: 200.0 mg/kg/injection, schedule: Q04DX003 (ip), vehicle: Klucel (hydroxypropylcellulose) (HPC) 119 % of control

NC(=O)NN(Cc1ccc(Br)cc1)N=O
inactive: [4] 96 % of control | [5] 97 % of control | [6] 97 % of control

COc1ccc2[se]c(C(=O)O)cc2c1
inactive: [1] 91 % of control | [2] 91 % of control

CN1C(=O)C(=C/C=C/N(C)c2ccccc2)C(=O)N(C)C1=O
inactive: [7] 96 % of control | [8] 95 % of control | [9] 88 % of control

CC(C)(NCc1ccccc1)C(=O)OC(C)(C)C(=O)NCc1ccccc1
inactive: dose: 25.0 mg/kg/injection, schedule: Q01DX005 (ip), vehicle: saline with Tween-80 100 % of control and 103 % of control | [10] 95 % of control and 108 % of control | [11] 95 % of control

CCN=C(N)N=C(N)N
inactive: dose: 25.0 mg/kg/injection, schedule: Q01DX001 (ip), vehicle: saline 108 % of control | dose: 50.0 mg/kg/injection, schedule: Q01DX001 (ip), vehicle: saline 87 % of control | [1] 100 % of control | [12] 87 % of control | [2] 107 % of control | [3] 98 % of control

Cc1cccc(C)c1Nc1nnc(-c2ccccc2)s1
inactive: [13] 104 % of control | [14] 103 % of control | [15] 94 % of control

CC(C)(C)[NH2+][B-](F)(F)F
inactive: dose: 6.25 mg/kg/injection, schedule: Q01DX005 (ip), vehicle: saline 94 % of control | dose: 12.5 mg/kg/injection, schedule: Q01DX005 (ip), vehicle: saline 103 % of control

CCCCCCCCCCSc1n[nH]c(=S)s1
inactive: [10] 100 % of control | [11] 100 % of control | [16] 105 % of control

[N-]=[N+]=CC(=O)NCC(=O)NNC(=O)c1ccccc1
inactive: dose: 3.12 mg/kg/injection, schedule: Q01DX009 (ip), vehicle: saline 92 % of control | dose: 6.25 mg/kg/injection, schedule: Q01DX009 (ip), vehicle: saline 87 % of control | dose: 12.5 mg/kg/injection, schedule: Q01DX009 (ip), vehicle: saline 100 % of control | dose: 25.0 mg/kg/injection, schedule: Q01DX009 (ip), vehicle: saline 87 % of control

N=C1SC23CCCN2C(=O)C2(CCCN2C3=O)S1
inactive: [12] 96 % of control | dose: 200.0 mg/kg/injection, schedule: Q01DX001 (ip), vehicle: saline 92 % of control | dose: 400.0 mg/kg/injection, schedule: Q01DX001 (ip), vehicle: saline 92 % of control

CONC(=O)N/N=C/c1c(CO)cnc(C)c1O
inactive: [17] 104 % of control | [18] 100 % of control | [19] 94 % of control

CCOC(C#CC(C)=O)OCC
inactive: dose: 60.0 mg/kg/injection, schedule: Q01DX005 (ip), vehicle: saline 106 % of control | dose: 120.0 mg/kg/injection, schedule: Q01DX005 (ip), vehicle: saline 103 % of control | dose: 240.0 mg/kg/injection, schedule: Q01DX005 (ip), vehicle: saline 103 % of control

O=C(O)/C(Cl)=C(\Cl)C(=O)Nc1cccc([N+](=O)[O-])c1
inactive: dose: 7.5 mg/kg/injection, schedule: Q01DX005 (ip), vehicle: saline with Tween-80 100 % of control | [13] 101 % of control | [15] 100 % of control and 103 % of control | [20] 106 % of control

Cc1ccccc1/C=C1/C(=O)C(c2ccccc2)=C1c1ccccc1
inactive: [4] 105 % of control | [5] 106 % of control | [6] 100 % of control

COc1cc([C@H]2OC[C@H]3[C@@H]2CO[C@@H]3c2ccc(OC(C)=O)c(OC)c2)ccc1OC(C)=O
inactive: [17] 96 % of control | [18] 93 % of control | [19] 86 % of control

ClC1=NC(Cl)C(Cl)=N/C1=N\c1ncn[nH]1 (centres undefined)
inactive: dose: 4.4 mg/kg/injection, schedule: Q04DX003 (ip), vehicle: saline with Tween-80 100 % of control | dose: 6.6 mg/kg/injection, schedule: Q04DX003 (ip), vehicle: saline with Tween-80 100 % of control | dose: 10.0 mg/kg/injection, schedule: Q04DX003 (ip), vehicle: saline with Tween-80 90 % of control | dose: 15.0 mg/kg/injection, schedule: Q04DX003 (ip), vehicle: saline with Tween-80 104 % of control

Cc1cc(N(CCCl)CCCl)ccc1N=Nc1cccc2ccccc12
inactive: [7] 105 % of control | [8] 115 % of control | [9] 123 % of control

O=C(O)c1c2c(nc3ccccc13)CCC(C(=O)O)C2 (centres undefined)
inactive: [15] 96 % of control | [20] 102 % of control | dose: 240.0 mg/kg/injection, schedule: Q01DX005 (ip), vehicle: saline with Tween-80 96 % of control

O=C(Nc1c(Cl)cccc1Cl)Oc1cccc2cccnc12
inactive: [13] 97 % of control | [14] 107 % of control | [15] 100 % of control and 92 % of control

O=c1[nH][nH]c(=O)c2[nH]cnc12
inactive: dose: 50.0 mg/kg/injection, schedule: Q04DX003 (ip), vehicle: saline with Tween-80 98 % of control | [21] 100 % of control | [22] 100 % of control | [23] 106 % of control

CCOC(=O)NNc1cccc(Cl)c1
inactive: [1] 100 % of control | [2] 100 % of control

COc1ccc(C(=Nc2ccc(C)cc2)c2ccc([N+](=O)[O-])cc2)cc1
inactive: [8] 90 % of control | [21] 95 % of control | [9] 90 % of control | [22] 95 % of control | dose: 400.0 mg/kg/injection, schedule: Q01DX009 (ip), vehicle: saline with Tween-80 90 % of control | [23] 100 % of control

CC(C)CNC(=O)CNC(=O)C=[N+]=[N-]
inactive: [7] 104 % of control | [8] 104 % of control | [9] 104 % of control

C=CCc1cc(OC)c(OCC=O)c(OC)c1
inactive: dose: 100.0 mg/kg/injection, schedule: Q04DX002 (ip), vehicle: Klucel (hydroxypropylcellulose) (HPC) 99 % of control | dose: 200.0 mg/kg/injection, schedule: Q04DX002 (ip), vehicle: Klucel (hydroxypropylcellulose) (HPC) 96 % of control

CC(=O)C1=CC[C@H]2[C@@H]3C=CC4=CC(=O)CC[C@]4(C)[C@H]3C[C@@H](O)[C@]12C
inactive: [17] 99 % of control | [18] 96 % of control | [19] 107 % of control | [24] 99 % of control | [25] 106 % of control

CNC(=O)Oc1ccc(Sc2ccc(OC(=O)NC)c(Cl)c2)cc1Cl
inactive: dose: 50.0 mg/kg/injection, schedule: Q01DX005 (ip), vehicle: saline + Tween-80 + alcohol 106 % of control | [10] 99 % of control and 118 % of control | dose: 100.0 mg/kg/injection, schedule: Q01DX005 (ip), vehicle: saline + Tween-80 + alcohol 119 % of control | [11] 102 % of control and 118 % of control | dose: 200.0 mg/kg/injection, schedule: Q01DX005 (ip), vehicle: saline + Tween-80 + alcohol 114 % of control | [16] 117 % of control | dose: 400.0 mg/kg/injection, schedule: Q01DX005 (ip), vehicle: saline + Tween-80 + alcohol 124 % of control

O=C1NC(=O)C(Cc2ccc(N(CCO)CCO)cc2)(c2ccccc2)N1 (centres undefined)
inactive: [19] 108 % of control and 109 % of control and 116 % of control | [24] 111 % of control and 121 % of control | [25] 117 % of control and 120 % of control | dose: 400.0 mg/kg/injection, schedule: Q01DX005 (ip), vehicle: Klucel (hydroxypropylcellulose) (HPC) 110 % of control and 124 % of control
